Experimental data reported in patent US20230095980A1, “Sodium 2-[(4S)-8-fluoro-2-[4-(3-methoxyphenyl)piperazin-1-yl]-3-[2-methoxy-5-(trifluoromethyl)phenyl]-4H-quinazolin-4-yl]acetate and pharmaceutical compositions thereof” (AIC246 AG & Co. KG, priority 2020, published 2023).

Assays:
[1] = intravenous formulation in neonates; cited from earlier work
[2] = Excipient-free formulation: reconstitution with water for injection and dilution in infusion bags; format: physicochemical
Experimental: 0.3164 g of letermovir sodium trihydrate salt was directly weighed into a washed, sterilized and dried 20R glass vial. […] Six vials were prepared accordingly. The vials were stoppered and crimp capped.
14 ml of water for injection were added to each 20R vial containing 280 mg of Letermovir free base resulting in concentration of 20 mg/ml. Water for injection was added after removal of the flip-off disk from the vial by using a 20-ml disposable syringe plus a 20G needle of 40 mm length.
The content of the vial was carefully homogenized by gentle manual rotation. In parallel, 2 empty infusion bags were filled with 288 ml of each parenteral admixture diluents (Ringer's lactate, 0.9% saline solution and 5% dextrose solution, respectively) by using a 50-ml syringe and a Mini-Spike. 12 ml of the content of the vial was withdrawn by using a 20-ml disposable syringe plus a 20G needle of 40 mm length. The total volume of 12 ml was directly injected into the diluent containing infusion bag. After the injection, the content of the bag was carefully homogenized by gentle manual rotation. Two independent preparations of each diluent were used, i.e., in total 6 infusion bags were prepared. Following, the prepared infusion bags were put on storage at room temperature (protected from light) and another sample was analyzed after 24 hours (T24 h).

| pH ([2]; other two diluents (0.9% saline solution, 5% dextrose solution)) | pH ([2]; solution reconstituted with Ringer's lactate, no pH adjustment) | Compound | PDE (permissible daily exposure) [1] [mg/day] | precipitation based on visual inspection ([2]; over 24 hours at room temperature, Ringer's lactate, 0.9% saline, 5% dextrose) |
| --- | --- | --- | --- | --- |
|  |  | OC[C@H]1O[C@@H](O[C@H]2[C@H](O)[C@@H](O)C(O)O[C@@H]2CO)[C@H](O)[C@@H](O)[C@H]1O (stereo partly drawn) [Lactose] | 5.7 |  |
| 8.0 | 7.8 | COc1cccc(N2CCN(C3=Nc4c(F)cccc4[C@H](CC(=O)[O-])N3c3cc(C(F)(F)F)ccc3OC)CC2)c1.[Na+] [letermovir sodium trihydrate salt, Sodium 2-[(4S)-8-fluoro-2-[4-(3-methoxyphenyl)piperazin-1-yl]-3-[2-methoxy-5-(trifluoromethyl)phenyl]-4H-quinazolin-4-yl]acetate] |  | None of the reconstituted formulations precipitated |
|  |  | OC[C@@H](O)[C@@H](O)[C@H](O)[C@H](O)CO [Mannitol] | 75 |  |
|  |  | OC[C@H]1O[C@H](O[C@H]2O[C@H](CO)[C@@H](O)[C@H](O)[C@H]2O)[C@H](O)[C@@H](O)[C@@H]1O [Trehalose] | 25.8 |  |
